Literature values as cited in US20190105278A1, “SHELLAC MICROCAPSULE FORMULATIONS AND COMPOSITIONS” (CONARIS RESEARCH INSTITUTE AG, priority 2016, published 2019).

Conditions: EFSA; for acceptable daily intake (ADI): preparations with at least 90% purity

## CC(=O)Nc1ccc(S(=O)(=O)[O-])c2cc(S(=O)(=O)[O-])c(N=Nc3ccc(N=Nc4ccc(S(=O)(=O)[O-])cc4)c4ccc(S(=O)(=O)[O-])cc34)c(O)c12.[Na+].[Na+].[Na+].[Na+] [brilliant black BN]
  upper systemic intake limit: 5 mg/kg
  acceptable daily intake (ADI): 5 mg/kg body weight

## O=C1/C(=C2\Nc3ccc(S(=O)(=O)[O-])cc3C2=O)Nc2ccc(S(=O)(=O)[O-])cc21.[Na+].[Na+] [indigo carmine]
  acceptable daily intake (ADI): 5 mg/kg body weight

## CCN(CC)c1ccc(C(=C2C=CC(=[N+](CC)CC)C=C2)c2cc(O)c(S(=O)(=O)[O-])cc2S(=O)(=O)[O-])cc1.CCN(CC)c1ccc(C(=C2C=CC(=[N+](CC)CC)C=C2)c2cc(O)c(S(=O)(=O)[O-])cc2S(=O)(=O)[O-])cc1.[Ca+2] [patent blue V]
  upper systemic intake limit: 5 mg/kg
  acceptable daily intake (ADI): 5 mg/kg body weight
